Data as given in PubChem BioAssay AID1963958 (Molecular Pharmacology Branch, DTP, NCI, 2024).

Test system: MDA-MB-231 multicell spheroids, viability
Assay: Anticancer human tumor MDA-MB-231 cell line growth inhibition [PI3K];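 also: spheroids exposed to agents for seven days before reading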;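 as to viability, T/C: percent of vehicle control luminescence with DMSO treated spheroids as 100%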
Conditions: for IC50: curve of first compound; for viability, T/C: stronger effect = lower value
Source text: Combinatorial screen of targeted agents with the PI3K inhibitors inavolisib, alpelisib, duvelisib, and copanlisib in multi-cell type tumor spheroids
A high-throughput screen of multi-cell type tumor spheroids was designed to identify active combinations of targeted small molecules and PI3K pathway inhibitors. Complex spheroids include a stromal component modeled by human endothelial cells (HUVEC) and fibroblasts modeled by human mesenchymal stem cells (MSCs). The concentration ranges selected for each drug and investigational agent were based upon clinically achievable concentrations if the clinical Cmax of the agent was known.
Compounds. The drugs and investigational agents: inavolisib (NSC800729), alpelisib (NSC765974), duvelisib (NSC772469), copanlisib (NSC816437), ipatasertib (NSC767898), afuresertib (NSC778305), talazoparib (NSC767125), sapanisertib (NSC764658), selumetinib (NSC741078), tovorafenib (DAY101, NSC766906), vemurafenib (NSC761431), ravoxertinib (NSC781343), sotorasib (NSC818433), MRTX1133 (NSC 836407), abemaciclib (NSC 768073), palbociclib (NSC758247), venetoclax (NSC 766270), SY5609 (NSC837396), enzalutamide (NSC755605), and darolutamide (NSC825331), were obtained from the National Cancer Institute (NCI) Developmental Therapeutics Program Chemical Repository. The FDA-approved anticancer drug set is available from the NCI Developmental Therapeutics Program. […] The stock solutions were prepared in dimethyl sulfoxide (DMSO, Sigma-Aldrich, St. Louis, MO, cat. D2650) at 800-fold the tested concentration and stored at -70 degrees C prior to their use. All drugs and investigational agents were tested over a range starting from a high concentration at or near the clinical Cmax and decreasing in half-log increments. If the clinical Cmax for an agent had not been determined, the highest concentration tested was 10 microM.
Cell Culture. All cells were maintained in an incubator at 37 degrees C and 5% CO2 with 95% humidity. The PDC lines were cultured according to standard operating procedures established by the NCI PDMR (https://pdmr.cancer.gov/sops/default.htm). All PDCs were thawed and cultured in Matrigel-coated flasks prepared with a working solution of 1X Ham's F-12 nutrient mix, without supplementation (Invitrogen, Waltham, MA, cat. 11765054), 100 U/mL penicillin-streptomycin (Invitrogen, cat. 15140122), and 2.5% Matrigel (Corning Inc., Corning, NY, cat. 354248) for the first three passages. The 354836-022-R-J1-PDC, 475296-252-R-J1-PDC, and 997726-040-R-J2-PDC lines were cultured in 6A media, which includes advanced DMEM/F-12 (Thermo Fisher Scientific, cat. 12634028), 10 mM HEPES (Thermo Fisher Scientific, cat. 15630080), 1X GlutaMAX supplement (Thermo Fisher Scientific, cat. 35050061), 0.1 mg/mL primocin (InvivoGen, San Diego, CA, cat. ant-pm-2), 10% defined fetal bovine serum, heat inactivated (HyClone Laboratories Inc., Logan, UT, cat. SH30070.03HI), 50% L-WRN conditioned media (ATCC, cat. CRL-3276), 1.25 mM N-Acetyl-L-cysteine (Sigma-Aldrich, cat. A9165), 10 mM nicotinamide (Sigma-Aldrich, cat. N0636), 1X B-27 supplement (Thermo Fisher Scientific, cat. 17504044), 1X N-2 supplement (Thermo Fisher Scientific, cat. 17502048), and 10 microM Y-27632 dihydrochloride (Tocris Bioscience, Bristol, United Kingdom, cat. 1254). The 624824-186-R-J2-PDC line was cultured in 6C/Colon 1B media, which includes all 6A media components plus 50 ng/mL human EGF recombinant protein (Thermo Fisher Scientific, cat. PHG0311). […]

[1] = second compound 0.00316 µM, first compound 0.0316 µM
[2] = second compound 0.00316 µM, first compound 0.1 µM
[3] = second compound 0.01 µM, first compound 0.0316 µM
[4] = second compound 0.01 µM, first compound 0.1 µM
[5] = second compound 0.0316 µM, first compound 0.0316 µM
[6] = second compound 0.0316 µM, first compound 0.1 µM
[7] = second compound 0.1 µM, first compound 0.0316 µM
[8] = second compound 0.1 µM, first compound 0.1 µM
[9] = second compound 0.316 µM, first compound 0.0316 µM
[10] = second compound 0.316 µM, first compound 0.1 µM
[11] = second compound 1 µM, first compound 0.0316 µM
[12] = second compound 1 µM, first compound 0.1 µM

C[C@@H](NC(=O)c1ncnc(N)c1Cl)c1ncc(C(=O)Nc2cc(C(F)(F)F)c(Cl)cn2)s1 + CC(Nc1ccc2c(c1)OCCn1cc(N3C(=O)OCC3C(F)F)nc1-2)C(N)=O
IC50 (second compound 0.00316 µM): > 10000 nM | IC50 (second compound 0.01 µM): > 10000 nM | IC50 (second compound 0.0316 µM): 3490 nM | IC50 (second compound 0.1 µM): 1360 nM | IC50 (second compound 0.316 µM): 625 nM | IC50 (second compound 1 µM): 337 nM | viability, T/C [1]: 119% | viability, T/C [2]: 93% | viability, T/C (second compound 0.00316 µM, first compound 0.316 µM): 86.7% | viability, T/C (second compound 0.00316 µM, first compound 1 µM): 86.9% | viability, T/C (second compound 0.00316 µM, first compound 3.16 µM): 73.9% | viability, T/C (second compound 0.00316 µM, first compound 10 µM): 50.6% | viability, T/C [3]: 111% | viability, T/C [4]: 94.2% | viability, T/C (second compound 0.01 µM, first compound 0.316 µM): 81.7% | viability, T/C (second compound 0.01 µM, first compound 1 µM): 72.1% | viability, T/C (second compound 0.01 µM, first compound 3.16 µM): 68.2% | viability, T/C (second compound 0.01 µM, first compound 10 µM): 49% | viability, T/C [5]: 91.3% | viability, T/C [6]: 75.1% | viability, T/C (second compound 0.0316 µM, first compound 0.316 µM): 66.1% | viability, T/C (second compound 0.0316 µM, first compound 1 µM): 62.7% | viability, T/C (second compound 0.0316 µM, first compound 3.16 µM): 52.3% | viability, T/C (second compound 0.0316 µM, first compound 10 µM): 40.8% | viability, T/C [7]: 83% | viability, T/C [8]: 66.4% | viability, T/C (second compound 0.1 µM, first compound 0.316 µM): 58.8% | viability, T/C (second compound 0.1 µM, first compound 1 µM): 54.1% | viability, T/C (second compound 0.1 µM, first compound 3.16 µM): 48.3% | viability, T/C (second compound 0.1 µM, first compound 10 µM): 32.6% | viability, T/C [9]: 77.8% | viability, T/C [10]: 66.3% | viability, T/C (second compound 0.316 µM, first compound 0.316 µM): 54.8% | viability, T/C (second compound 0.316 µM, first compound 1 µM): 45.6% | viability, T/C (second compound 0.316 µM, first compound 3.16 µM): 41% | viability, T/C (second compound 0.316 µM, first compound 10 µM): 33% | viability, T/C [11]: 67.4% | viability, T/C [12]: 55.4% | viability, T/C (second compound 1 µM, first compound 0.316 µM): 49.5% | viability, T/C (second compound 1 µM, first compound 1 µM): 44.8% | viability, T/C (second compound 1 µM, first compound 3.16 µM): 38.4% | viability, T/C (second compound 1 µM, first compound 10 µM): 28.8%

Cn1ncnc1[C@H]1c2n[nH]c(=O)c3cc(F)cc(c23)N[C@@H]1c1ccc(F)cc1 + CC(Nc1ccc2c(c1)OCCn1cc(N3C(=O)OCC3C(F)F)nc1-2)C(N)=O
IC50 (second compound 0.00316 µM): > 100 nM | IC50 (second compound 0.01 µM): > 100 nM | IC50 (second compound 0.0316 µM): > 100 nM | IC50 (second compound 0.1 µM): 74 nM | IC50 (second compound 0.316 µM): 47.1 nM | IC50 (second compound 1 µM): 17.6 nM | viability, T/C (second compound 0.00316 µM, first compound 0.000316 µM): 99.1% | viability, T/C (second compound 0.00316 µM, first compound 0.001 µM): 93.9% | viability, T/C (second compound 0.00316 µM, first compound 0.00316 µM): 97.8% | viability, T/C (second compound 0.00316 µM, first compound 0.01 µM): 87.8% | viability, T/C [1]: 82.4% | viability, T/C [2]: 74.5% | viability, T/C (second compound 0.01 µM, first compound 0.000316 µM): 90.7% | viability, T/C (second compound 0.01 µM, first compound 0.001 µM): 95% | viability, T/C (second compound 0.01 µM, first compound 0.00316 µM): 81.8% | viability, T/C (second compound 0.01 µM, first compound 0.01 µM): 84.4% | viability, T/C [3]: 78.2% | viability, T/C [4]: 78.3% | viability, T/C (second compound 0.0316 µM, first compound 0.000316 µM): 78.1% | viability, T/C (second compound 0.0316 µM, first compound 0.001 µM): 86.7% | viability, T/C (second compound 0.0316 µM, first compound 0.00316 µM): 75.4% | viability, T/C (second compound 0.0316 µM, first compound 0.01 µM): 73.5% | viability, T/C [5]: 63.7% | viability, T/C [6]: 58.9% | viability, T/C (second compound 0.1 µM, first compound 0.000316 µM): 70.8% | viability, T/C (second compound 0.1 µM, first compound 0.001 µM): 69.7% | viability, T/C (second compound 0.1 µM, first compound 0.00316 µM): 65% | viability, T/C (second compound 0.1 µM, first compound 0.01 µM): 62.4% | viability, T/C [7]: 50.5% | viability, T/C [8]: 50.1% | viability, T/C (second compound 0.316 µM, first compound 0.000316 µM): 62.7% | viability, T/C (second compound 0.316 µM, first compound 0.001 µM): 64.3% | viability, T/C (second compound 0.316 µM, first compound 0.00316 µM): 59.4% | viability, T/C (second compound 0.316 µM, first compound 0.01 µM): 56.9% | viability, T/C [9]: 49.4% | viability, T/C [10]: 47.7% | viability, T/C (second compound 1 µM, first compound 0.000316 µM): 63.2% | viability, T/C (second compound 1 µM, first compound 0.001 µM): 58% | viability, T/C (second compound 1 µM, first compound 0.00316 µM): 53.9% | viability, T/C (second compound 1 µM, first compound 0.01 µM): 51.6% | viability, T/C [11]: 50% | viability, T/C [12]: 45.4%
